Data reported in patent US20230404968A1, “Gamma Butyrolactone Derivatives for Inducing Differentiation in Neoplastic Cells” (priority 2022, published 2023).

How the values were obtained:
HL60 cells [1] = experiment: Cell viability (MTS) assay, HL60; settings: for cellular viability (MTS): HL60 cancer cells, at the given concentrations, 24, 48, and 72 hours; for toxicity: HL60 cell line, at a concentration of induction of cellular differentiation (FIGS. 9B, 10B)
Experimental: (§1) Cell culture methods and treatments. HL60 and KG1a cell lines were cultivated in RPMI 1640 (Sigma-USA) culture medium supplemented with 1% penicillin/streptomycin (Gibco-USA), 10% and 20% fetal bovine serum (Gibco-USA) for HL60 and KG1a cell lines, respectively, and 0.5% Glutamax (Gibco-USA) for HL60 cell line. The cells were incubated at 37° C., 5% CO2, and 90% humidity. The stock solution (Mol/L) of HSL-C8, HSL-C12, and A-factor were prepared in 0.1% (v/v) and 0.2% (v/v) and 0.2% (v/v) DMSO, respectively, as a vehicle and stored at −80° C. Different dilutions of HSL-C8, HSL-C12, A-factor, and GBL were prepared from the stock solution, and […] (<4% of the total volume) of each were added to the wells containing 100 μL of cell suspension (10000 and 20000 HL60 and KG1a cells per well). 0.1% and 0.2% DMSO were used as the negative control for HSL-C8, HSL-C12, and A-factor for each test. Culture medium were used as the negative control for GBL.
(§2) Cell viability assay. The cell viability was evaluated via (MTS) assay. HL60, KG1a, and PBMC cells were treated with HSL-C8, HSL-C12, A-factor, and GBL in 96-well plates for 24, 48, and 72 hours. Thereafter, […], of MTS/PMS solution were added to each well and the cells were incubated for 90 minutes. The optical density (OD) of samples was measured via spectrophotometer (EPOCH, BioTek, USA) at 490 nm and the viability of cells was calculated via the following formula:
(§3) Cell viability (%)=[ODsample/ODcontrol]×100

KG1a cells [2] = experiment: Induction of differentiation: gene expression (qRT-PCR) and CD surface markers (flow cytometry), KG1a; type: cell-based; settings: KG1a cell line; confirmed by expression of FLT3, PU1, CEBPA genes and CD3, CD20, CD14, CD33, CD16, CD56 surface markers
Experimental: (§4) Cell culture methods and treatments.
(§5) Flow cytometry. […] In addition, treated cells were incubated with antibody-dye conjugate against CD3, CD20, CD16, CD56, CD14, and CD33 for surface antigen analysis. Thereafter the samples were analyzed by flow cytometer (Attune NxT, Life Technologies-Thermo Fisher Scientific, USA). Treatment with 5 μL H2O2 and 1 μM ATRA were used as the positive controls for apoptosis and necrosis and surface antigen analyses, respectively. Data were analyzed with FlowJo software.
(§6) RNA isolation and qRT-PCR. […] The concentration of extracted RNA was measured via spectrophotometer (EPOCH, BioTek, USA) at 260 nm. The quality of isolated RNA was further evaluated via agarose gel electrophoresis indicating two distinctive bands. Isolated RNA was then converted to cDNA via a commercial kit according to the manufacturer's instructions. The primers were designed with AlleleID software and Primer3 algorithm and then double-checked via the BLAST algorithm. cDNA samples were then prepared for analysis using a commercial kit and analyzed with qRT-PCR machine (Applied Biosystems-Thermo Fisher Scientific, USA).

HL60 cells [3] = experiment: Induction of differentiation: gene expression (qRT-PCR) and CD surface markers (flow cytometry), HL60; type: cell-based; settings: HL60 cell line; confirmed by expression of FLT3, PU1, CEBPA genes and CD3, CD20, CD14, CD33, CD16, CD56 surface markers
Experimental: as §4, §5, §6

KG1a cells [4] = experiment: Cell viability (MTS) assay, KG1a; settings: for cellular viability (MTS): KG1a cancer cells, at the given concentrations, 24, 48, and 72 hours; for toxicity: KG1a cell line, at a concentration of induction of cellular differentiation (FIGS. 9C, 10C)
Experimental: as §1, §2, §3

[5] = test system: peripheral blood mononuclear cells (PBMC); experiment: Cell viability (MTS) assay, PBMC; type: cell-based; settings: normal cells (PBMC), at the given concentrations, 24, 48, and 72 hours
Experimental: Cell viability assay. The cell viability was evaluated via (MTS) assay.
as §3

HL60 cells [6] = experiment: Apoptosis/necrosis by flow cytometry, Annexin-V-FITC/PI staining, HL60; type: cell-based; settings: for apoptosis (early and late) and necrosis: HL60 cells
Experimental: as §4, §5

KG1a cells [7] = experiment: Apoptosis/necrosis by flow cytometry, Annexin-V-FITC/PI staining, KG1a; type: cell-based
Experimental: as §4, §5

KG1a cells [8] = experiment: Wright-Giemsa staining and light microscopy (morphology), KG1a; type: cell-based
Experimental: as §4
(§7) Wright-Giemsa staining. HL60 and KG1a cells treated HSL-C8 and HSL-C12 were concentrated and then fixed on the slides with absolute ethanol prior to Wright-Giemsa staining. After staining for four minutes the 1 mL of tap water was added to the slides. After four minutes, they were washed with tap water, air-dried, and evaluated with a light microscopy.

HL60 cells [9] = experiment: Wright-Giemsa staining and light microscopy (morphology), HL60; type: cell-based
Experimental: as §4, §7

| SMILES | cellular viability (MTS) (HL60 cells [1]) | toxicity (HL60 cells [1]) | terminal cellular differentiation (KG1a cells [2]) | terminal cellular differentiation (HL60 cells [3]) | cellular viability (MTS) (KG1a cells [4]) | toxicity (KG1a cells [4]) | cellular viability (MTS) [5] | further results |
| --- | --- | --- | --- | --- | --- | --- | --- | --- |
| CC(C)CCCCC(=O)C1C(=O)OCC1CO (stereo not drawn) [A-factor, 2-isocapryloyl-3R-hydroxymethyl-gamma-butyrolactone] | do not decrease the cellular viability of treated cancer cells and normal cells (PBMC) significantly | minimal toxicity | induced terminal cellular differentiation | induced terminal cellular differentiation | do not decrease the cellular viability of treated cancer cells and normal cells (PBMC) significantly | minimal toxicity | do not decrease the cellular viability of treated cancer cells and normal cells (PBMC) significantly |  |
| O=C1CCCO1 [GBL, Gamma butyrolactone] | do not decrease the cellular viability of treated cancer cells and normal cells (PBMC) significantly | minimal toxicity | induced terminal cellular differentiation | induced terminal cellular differentiation | do not decrease the cellular viability of treated cancer cells and normal cells (PBMC) significantly | minimal toxicity | do not decrease the cellular viability of treated cancer cells and normal cells (PBMC) significantly | apoptosis (early and late) and necrosis (HL60 cells [6]; 300 μM of GBL, 48 hours (FIG. 11)): minimal to no apoptosis (early and late) and necrosis; apoptosis (early and late) and necrosis (KG1a cells [7]; KG1a cells, 300 μM of GBL, 48 hours (FIG. 11)): minimal to no apoptosis (early and late) and necrosis |
| CCCCCC(=O)CC(=O)N[C@H]1CCOC1=O [HSL-C8] | do not decrease the cellular viability of treated cancer cells and normal cells (PBMC) significantly |  | induced terminal cellular differentiation | induced terminal cellular differentiation | do not decrease the cellular viability of treated cancer cells and normal cells (PBMC) significantly |  | do not decrease the cellular viability of treated cancer cells and normal cells (PBMC) significantly | concentrations that cause minimal to no apoptosis (HL60 cells [6]; human): ≤ 100 µM; change of cell morphology (KG1a cells [8]; 100 μM and 200 μM of HSL-C8, 48 and 72 hours (FIG. 7B)): neutrophil and macrophage-like cells, with lobulated nuclei and expanded cytoplasm; change of cell morphology (HL60 cells [9]; 50 μM and 100 μM of HSL-C8, 48 and 72 hours (FIG. 7A)): neutrophil and macrophage-like cells, with lobulated nuclei and expanded cytoplasm; concentrations that cause minimal to no apoptosis (KG1a cells [7]; human): ≤ 100 µM |
| CCCCCCCCCC(=O)CC(=O)N[C@H]1CCOC1=O [HSL-C12] | do not decrease the cellular viability of treated cancer cells and normal cells (PBMC) significantly |  | induced terminal cellular differentiation | induced terminal cellular differentiation | do not decrease the cellular viability of treated cancer cells and normal cells (PBMC) significantly |  | do not decrease the cellular viability of treated cancer cells and normal cells (PBMC) significantly | apoptosis (early and late) and necrosis (HL60 cells [6]; 50 and 100 μM of HSL-C12, 24 hours (FIG. 4A)): minimal to no apoptosis (early and late) and necrosis; apoptosis (early and late) and necrosis (HL60 cells [6]; 50 and 100 μM of HSL-C12, 48 hours (FIG. 4B)): minimal to no apoptosis (early and late) and necrosis; change of cell morphology (KG1a cells [8]; 100 μM and 150 μM of HSL-C12, 24 and 48 hours (FIG. 8B)): neutrophil and macrophage-like cells, with lobulated nuclei and expanded cytoplasm; change of cell morphology (HL60 cells [9]; 100 μM and 150 μM of HSL-C12, 24 and 48 hours (FIG. 8A)): neutrophil and macrophage-like cells, with lobulated nuclei and expanded cytoplasm; apoptosis (early and late) and necrosis (KG1a cells [7]; KG1a cells, 100 μM of HSL-C12, 24 hours (FIG. 4C)): minimal to no apoptosis (early and late) and necrosis; apoptosis (early and late) and necrosis (KG1a cells [7]; KG1a cells, 100 μM of HSL-C12, 48 hours (FIG. 4D)): minimal to no apoptosis (early and late) and necrosis; apoptosis and necrosis (KG1a cells [7]; KG1a cells, 150 μM of HSL-C12, 24 hours (FIG. 4C)): minimal apoptosis and necrosis; apoptosis (early and late) and necrosis (KG1a cells [7]; KG1a cells, 150 μM of HSL-C12, 48 hours (FIG. 4D)): moderate apoptosis (early and late) and necrosis |
